The target in one test is T1, human mGlu3 receptors (Homo sapiens, UniProt Q14832).
T1 construct: expressed in transfected cells; host or cells: AV12 cells, co-expressing rat EAAT1
As to the kind of experiment: mGlu3 receptor cAMP antagonist assay. In kind it is cell-based. As to conditions: reversal of DCG IV (EC90) inhibition of forskolin-stimulated cAMP; AV12 cells. The method, then: mGlu2 and mGlu3 Receptor cAMP Antagonist Assays
Antagonist activity is assayed in recombinant AV12 cells stably expressing human mGlu2 or mGlu3 receptors and the rat glutamate transporter EAAT1 (Excitatory Amino Acid Transporter 1). The cell lines are maintained by culturing in DMEM with high glucose and pyridoxine hydrochloride supplemented with 5% dialyzed fetal bovine serum (FBS), 1 mM sodium pyruvate, 1 mM HEPES and 1 mM L-glutamine; geneticin and hygromycin B are used as selection antibiotics. Confluent cultures are grown at 37° C. in an atmosphere containing 6.5% CO2, and passaged biweekly. Cells are harvested using 0.25% trypsin, suspended in freeze media (FBS with 10% DMSO) at 10^7 cells/ml, and aliquots are stored in liquid nitrogen. Twenty-four hours before the assay, cells are plated at a density of 8,000-10,000 cells per well in a tissue culture treated, 96-well, half-area black plates (Costar 3875) in 50 μl of DMEM with high glucose and pyridoxine hydrochloride supplemented with 5% dialyzed FBS, 1 mM sodium pyruvate, 1 mM HEPES, 100 μg/ml ampicillin, and 250 μM (mGlu2) or 125 μM (mGlu3) of L-glutamine.
Reversal of the inhibition of forskolin-stimulated cAMP production by test compounds is measured using homogeneous time resolved fluorescence technology (HTRF; Cisbio cat #62AM4PEB). The medium is removed and the cells are incubated with 100 μl cAMP stimulation buffer (STIM) for 30 minutes at 37° C. (STIM buffer contains 500 ml HBSS, 1000 ml DPBS, 0.034% BSA, 1.67 mM HEPES and 500 μM IBMX (Sigma 15879).) Compounds are tested in 10-point concentration response curves using 3× serial dilution followed by further 40-fold dilution into STIM buffer. DCG IV (Tocris 0975) serves as the reference agonist. The final reaction mixture contains 1 μM (for mGlu2) or 3 μM (for mGlu3) of forskolin (Sigma F6886), DCG IV at its EC90, and up to 25 μM of test compound. Cells are incubated at 37° C. for 20 minutes. To measure the cAMP levels, cAMP-d2 conjugate and anti cAMP-cryptate conjugate in lysis buffer are incubated with the treated cells at room temperature for 1 hour (mGlu2) or 1.5 hour (mGlu3). The HTRF signal is detected using an EnVision plate reader (Perkin-Elmer) to calculate the ratio of fluorescence at […]. The raw data are converted to cAMP amount (pmole/well) using a cAMP standard curve generated for each experiment. Relative IC50 values are calculated from the top-bottom range of the concentration response curve using a four-parameter logistic curve fitting program (ActivityBase v5.3.1.22).

The target in a further test is T2, human mGlu5 receptor (Homo sapiens, UniProt P41594).
T2 construct: expressed in transfected cells; host or cells: AV12 cells, co-expressing rat EAAT1
T2 sequence (P41594 19-1212 limits assumed): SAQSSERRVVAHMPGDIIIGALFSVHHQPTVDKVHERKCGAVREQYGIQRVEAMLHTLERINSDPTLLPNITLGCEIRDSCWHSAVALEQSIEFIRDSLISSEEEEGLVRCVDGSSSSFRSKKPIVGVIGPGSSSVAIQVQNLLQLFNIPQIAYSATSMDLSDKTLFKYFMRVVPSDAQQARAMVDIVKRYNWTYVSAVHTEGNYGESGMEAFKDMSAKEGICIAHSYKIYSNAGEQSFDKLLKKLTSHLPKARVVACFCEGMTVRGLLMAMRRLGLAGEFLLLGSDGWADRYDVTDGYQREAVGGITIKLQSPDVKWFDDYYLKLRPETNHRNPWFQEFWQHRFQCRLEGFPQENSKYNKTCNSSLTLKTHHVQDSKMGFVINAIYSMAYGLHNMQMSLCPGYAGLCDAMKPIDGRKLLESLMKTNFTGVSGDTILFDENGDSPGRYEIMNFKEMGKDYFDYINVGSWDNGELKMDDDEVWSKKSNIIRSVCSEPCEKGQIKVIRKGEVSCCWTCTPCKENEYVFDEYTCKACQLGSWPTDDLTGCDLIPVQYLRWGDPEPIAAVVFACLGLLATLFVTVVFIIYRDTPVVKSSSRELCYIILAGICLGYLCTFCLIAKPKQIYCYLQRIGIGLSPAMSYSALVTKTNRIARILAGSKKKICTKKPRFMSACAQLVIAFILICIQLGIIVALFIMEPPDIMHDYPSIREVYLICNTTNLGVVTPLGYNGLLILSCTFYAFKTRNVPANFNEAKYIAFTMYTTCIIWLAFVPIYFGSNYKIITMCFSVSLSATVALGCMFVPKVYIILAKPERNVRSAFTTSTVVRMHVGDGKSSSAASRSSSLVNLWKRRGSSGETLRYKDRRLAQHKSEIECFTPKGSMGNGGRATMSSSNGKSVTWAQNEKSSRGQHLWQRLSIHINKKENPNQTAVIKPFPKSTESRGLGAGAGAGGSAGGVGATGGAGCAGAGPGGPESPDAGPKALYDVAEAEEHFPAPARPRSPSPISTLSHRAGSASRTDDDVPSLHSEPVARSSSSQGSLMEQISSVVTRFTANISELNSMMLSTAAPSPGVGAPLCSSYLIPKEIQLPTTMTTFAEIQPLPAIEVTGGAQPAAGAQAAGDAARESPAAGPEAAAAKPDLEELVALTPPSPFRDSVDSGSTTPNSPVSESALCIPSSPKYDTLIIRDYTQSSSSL
As to the kind of experiment: FLIPR calcium assay for mGlu receptor selectivity, mGlu5 antagonist mode. The test is classed as cell-based. The following applies: inhibition of EC90 glutamate response, read-out: mGlu5 % inhib. @12.5 μM. From the text: FLIPR and cAMP Assays for mGlu Receptor Selectivity
The relative antagonist potencies of the compounds of the invention for the other human mGlu receptors can be assessed with either a cAMP assay or fluorometric calcium response assay (see for example Fell et al., JPET (in press)). Briefly, individual AV12 cell lines containing the rat EAAT1 glutamate transporter and stably expressing the human mGlu1, 2, 3, 4, 5, 6, & 8 receptors are used for these studies. The mGlu1 and 5 receptors are […], so they naturally signal through phospholipase C, producing a calcium flux response which can be used to measure receptor activation using a Fluorometric Imaging Plate Reader (FLIPR, Molecular Devices). The cell lines expressing the mGlu2, 3, 4, and 8 receptor are designed to express the Gα15 subunit so that these Gi-coupled receptors will generate a calcium flux response similar to the mGlu1 and 5 receptor expressing cell lines. The mGlu6 receptor is tested in a cAMP format using methods analogous to those developed for mGlu2 and mGlu3 above. These cell lines are maintained as previously described except that amounts of L-glutamine and selection agents (geneticin, hygromycin B, zeocin, and blasticidin) may vary depending on the cell line. Confluent cultures are passaged biweekly.
Intracellular calcium levels are monitored using FLIPR before and after the addition of test compounds and Fluo-3 AM (Invitrogen) or Calcium 4 (Molecular Devices) dye, depending on the cell line. Cells are plated 24 hours prior to assay in a variable concentration of glutamine and a variable density of cells per well, depending on the cell line. The medium is removed and the cells are incubated with 8 μM of dye (50 μl per well) for 90 or 120 minutes (depending on cell line) at 25° C. A single-addition FLIPR assay generating an 11-point concentration response curve for the agonist glutamate is conducted prior to each experiment to confirm the appropriate sensitivity of the cells. The results are analyzed using GraphPad Prism v4.03 to calculate the concentrations of glutamate needed to induce the EC90 (antagonist assay) and EC10 (potentiator assay) responses.
Compounds are tested at each mGlu receptor in a two-addition FLIPR assay using a 10-point concentration response profile starting at a final concentration of 25 μM for the agonist assay and 12.5 μM for the potentiator and antagonist assays. The first addition detects any agonist activity, and the second addition consists of 100 μl of select concentrations (depending on cell line) of glutamate in assay buffer generating an EC10 or EC90 glutamate response. Agonist effects are quantified as percent stimulation induced by compound alone relative to the maximal glutamate response. Antagonist effects are quantified by calculating the percent inhibition of the EC90 glutamate response caused by the compound. Potentiation effects are quantified as percent increase in the presence of an EC10 response in glutamate relative to the ECmax response. All data are calculated as relative IC50 or EC50 values using a four-parameter logistic curve fitting program (ActivityBase v5.3.1.22).

One may read the IC50 as the concentration at which inhibition is half-maximal.

T1 sequence (Q14832 23-879): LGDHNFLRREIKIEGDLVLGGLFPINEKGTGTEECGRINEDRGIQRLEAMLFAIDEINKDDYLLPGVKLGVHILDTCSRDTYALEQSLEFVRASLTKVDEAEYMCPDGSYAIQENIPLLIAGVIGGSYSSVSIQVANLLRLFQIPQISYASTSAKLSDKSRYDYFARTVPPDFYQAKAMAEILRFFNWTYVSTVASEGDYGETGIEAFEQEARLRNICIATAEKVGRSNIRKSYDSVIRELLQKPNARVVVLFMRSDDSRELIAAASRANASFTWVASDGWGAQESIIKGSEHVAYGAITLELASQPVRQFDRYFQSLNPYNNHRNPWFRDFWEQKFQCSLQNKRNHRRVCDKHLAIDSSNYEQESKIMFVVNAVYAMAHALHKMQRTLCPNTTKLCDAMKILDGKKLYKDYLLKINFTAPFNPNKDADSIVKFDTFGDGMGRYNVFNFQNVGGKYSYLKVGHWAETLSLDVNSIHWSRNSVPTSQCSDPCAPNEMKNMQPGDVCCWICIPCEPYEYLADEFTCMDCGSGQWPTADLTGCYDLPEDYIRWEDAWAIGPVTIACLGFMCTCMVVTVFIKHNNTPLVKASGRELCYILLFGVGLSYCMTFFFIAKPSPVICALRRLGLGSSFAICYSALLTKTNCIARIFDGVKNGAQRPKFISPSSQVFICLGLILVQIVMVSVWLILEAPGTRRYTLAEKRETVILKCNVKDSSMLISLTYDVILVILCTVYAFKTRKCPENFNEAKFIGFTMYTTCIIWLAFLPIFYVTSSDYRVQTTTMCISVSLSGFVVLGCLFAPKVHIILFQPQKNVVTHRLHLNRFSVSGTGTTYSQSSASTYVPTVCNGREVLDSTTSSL

In the case of `N[C@]1(C(=O)O)[C@@H]2[C@@H](C(=O)O)[C@@H]2[C@H](O)[C@H]1OCc1ccc(Cl)c(Cl)c1` [Example 1, (1S,2R,3S,4S,5R,6R)-2-Amino-3-[(3,4-dichlorobenzyl)oxy]-4-hydroxybicyclo[3.1.0]hexane-2,6-dicarboxylic acid], the IC50 at human mGlu3 receptors worked out at 27.2 ± 4.2 nM. Also, the inhibition at 12.5 µM on human mGlu5 receptor turned out to be 4.8%.
For `N[C@]1(C(=O)O)[C@@H]2[C@@H](C(=O)O)[C@@H]2[C@H](Sc2nc[nH]n2)[C@H]1OCc1ccc(Cl)c(Cl)c1` [Example 2, (1R,2R,3S,4S,5R,6R)-2-Amino-3-[(3,4-dichlorobenzyl)oxy]-4-(1H-1,2,4-triazol-3-ylsulfanyl)bicyclo[3.1.0]hexane-2,6-dicarboxylic acid] the same measures were 7.8 nM and -12.9%.
For `CC(=O)N[C@H]1[C@H]2[C@H](C(=O)O)[C@H]2[C@](N)(C(=O)O)[C@@H]1OCc1ccc(Cl)c(Cl)c1` [Example 4, (1S,2R,3R,4S,5R,6S)-4-(Acetylamino)-2-amino-3-[(3,4-dichlorobenzyl)oxy]bicyclo[3.1.0]hexane-2,6-dicarboxylic acid] the same measures were 8.2 ± 0.3 nM and 22.6%.
For `Cl.Cn1cnc(S[C@H]2[C@H]3[C@H](C(=O)O)[C@H]3[C@](N)(C(=O)O)[C@@H]2OCc2ccc(Cl)c(Cl)c2)n1` [Example 7, (1R,2R,3S,4S,5R,6R)-2-Amino-3-[(3,4-dichlorophenyl)methoxy]-4-[(1-methyl-1,2,4-triazol-3-yl)sulfanyl]bicyclo[3.1.0]hexane-2,6-dicarboxylic acid hydrochloride.], the IC50 at human mGlu3 receptors is 34.8 ± 6.9 nM. The inhibition at 12.5 µM at human mGlu5 receptor stood at 22.7%.
For `Cl.N[C@]1(C(=O)O)[C@@H]2[C@@H](C(=O)O)[C@@H]2[C@H](NC(=O)CO)[C@H]1OCc1ccc(Cl)c(Cl)c1` [Example 9, (1S,2R,3R,4S,5R,6S)-2-Amino-3-[(3,4-dichlorobenzyl)oxy]-4-[(hydroxyacetyl)amino]bicyclo[3.1.0]hexane-2,6-dicarboxylic acid hydrochloride] the same measures were 4.4 ± 0.5 nM and 13.8%.

These data come from patent publication US9056844B2, “4-substituted-3-benzyloxy-bicyclo[3.1.0]hexane compounds as mGluR 2/3 antagonists” (Eli Lilly and Company, priority 2010, dated 2015).
